In US20120010206A1, “IMIDAZOLOPYRIDINE COMPOUNDS USEFUL FOR THE TREATMENT OF DEGENERATIVE AND INFLAMMATORY DISEASES” (priority 2006, published 2012) one finds EC50 and IC50 data, which are given here for 32 molecules.

Assay [1] concerns MMP1 expression from activated SFs (RASF). Kind of assay: MMP assay: MMP1 expression (ELISA) by TNF-α-triggered RASFs. It is filed as cell-based. Particulars: RASF triggered with TNFα, MMP1 ELISA after 48 hrs, semi-quantitative score. The method, boiled down: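 Rheumatoid arthritis synovial fibroblasts (passage 10–12) were preincubated 90 min with compound in M199 with 1% FBS, then stimulated with TNF-α (10 ng/mL final) or complex trigger (12.5% final) for 48 h. MMP1 in the supernatant was quantified by sandwich luminescence ELISA. Controls were stimulated cells with 0.2% DMSO vehicle and unstimulated cells.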
(An ELISA detects its analyte on a solid surface through an enzyme-linked reagent.)

Assay [2] has as its target T1, TAK1-TAB1 fusion protein (Homo sapiens, UniProt O43318).
T1 construct: purchased Upstate 14-600
T1 sequence (O43318 with tags, fused parts or gaps limits assumed): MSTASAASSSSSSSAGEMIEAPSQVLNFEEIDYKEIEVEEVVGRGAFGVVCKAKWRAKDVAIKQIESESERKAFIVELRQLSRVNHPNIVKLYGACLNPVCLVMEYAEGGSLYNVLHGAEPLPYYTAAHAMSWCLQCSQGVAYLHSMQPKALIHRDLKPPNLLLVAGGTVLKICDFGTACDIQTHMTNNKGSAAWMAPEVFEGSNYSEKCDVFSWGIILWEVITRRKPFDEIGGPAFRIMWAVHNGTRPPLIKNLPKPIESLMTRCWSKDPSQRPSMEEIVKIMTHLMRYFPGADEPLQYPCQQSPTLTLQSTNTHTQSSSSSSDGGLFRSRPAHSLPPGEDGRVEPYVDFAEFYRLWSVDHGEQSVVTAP
Kind of assay: In vitro TAK1 kinase assay (33P-ATP, casein substrate). It is filed as biochemical. Particulars: semi-quantitative score, at least two independent experiments. Put shortly:
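Radiometric assay with active TAK1-TAB1 fusion protein (0.5 mU), 0.1 mg/mL casein, ATP at 5 µM plus [33P]-γ-ATP, in 10 mM MOPS pH 7.0, 1 mM EDTA. Reactions ran 90 min at 30 °C, were stopped with phosphoric acid and filter-counted; percent inhibition from ≥2 experiments gave semi-quantitative potency scores.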

As usually defined, the EC50 is the concentration that produces a half-maximal response. A high value points to lower potency in that assay. A word on the IC50: it is the midpoint of a concentration-inhibition curve.

A value given as a limit tells only on which side of the number the result lay.

`CC(C)N1CCN(c2ccc(Nc3ccc(-c4csc(C(N)=O)c4)n4ccnc34)cc2)CC1` [Compound 8, 4-{8-[4-(4-Isopropyl-piperazin-1-yl)-phenylamino]-imidazo[1,2-a]pyridin-5-yl}-thiophene-2-carboxylic acid amide] showed an EC50 in assay [1] of 101 to 1000 nM. This molecule gave an IC50 in assay [2] of 101 to 1000 nM.
`CS(=O)(=O)c1ccc(Nc2ccc(-c3cc[nH]c(=O)c3)n3ccnc23)cc1` [Compound 64] gave an EC50 in assay [1] of 1000 to 3000 nM. The IC50 in assay [2] was 101 to 1000 nM.
For `CN(C)C1CCN(C(=O)c2ccc(Nc3ccc(-c4ccc5c(c4)CNC5=O)n4ccnc34)cc2)C1` (stereo not shown) [Compound 39, 5-(8-(4-(3-(dimethylamino)pyrrolidine-1-carbonyl)phenyl-amino)imidazo[1,2-a]pyridin-5-yl)isoindolin-1-one], in that order: > 3000 nM and < 100 nM.
For `NC(=O)c1ccc(-c2ccc(Nc3ccc(N4CCOCC4)c(F)c3)c3nccn23)cc1` [Compound 66], in that order: 101 to 1000 nM and 1000 to 3000 nM.
For `CC(C)N1CCN(c2ccc(Nc3ccc(-c4ccc5c(c4)CNC5=O)n4ccnc34)cc2)CC1` [Compound 12, 5-{8-[4-(4-Isopropyl-piperazin-1-yl)-phenylamino]-imidazo[1,2-a]pyridin-5-yl}-2,3-dihydro-isoindol-1-one], in that order: 101 to 1000 nM and < 100 nM.
Consider `O=C1NCc2cc(-c3ccc(Nc4ccc(S(=O)(=O)NC5CCNC5)cc4)c4nccn34)ccc21` (stereo not shown) [Compound 32, 4-(5-(1-oxoisoindolin-5-yl)imidazo[1,2-a]pyridin-8-ylamino)-N-(pyrrolidin-3-yl)benzene sulfonamide], for which the EC50 in assay [1] is > 3000 nM. The half-inhibitory concentration (IC50) in assay [2] was in the range of 101 to 1000 nM.
`CCN(C)CCN(CC)C(=O)c1ccc(Nc2ccc(-c3ccc4c(c3)CNC4=O)n3ccnc23)cc1` [Compound 47, N-ethyl-N-(2-(ethyl(methyl)amino)ethyl)-4-(5-(1-oxoisoindolin-5-yl)imidazo[1,2-a]pyridin-8-ylamino)benzamide]: the EC50 in assay [1] is > 3000 nM. In assay [2], the IC50 was < 100 nM.
For `CS(=O)(=O)c1ccc(Nc2ccc(-c3ccc(C(N)=O)c(F)c3)n3ccnc23)cc1` [Compound 72], in that order: 1000 to 3000 nM and 1000 to 3000 nM.
The like results for `CC1CN(c2ccc(Nc3ccc(-c4cc[nH]c(=O)c4)n4ccnc34)cc2)CC(C)N1` (stereo not shown) [Compound 124, 4-{8-[4-(3,5-Dimethyl-piperazin-1-yl)-phenylamino]-imidazo[1,2-a]pyridin-5-yl}-1H-pyridin-2-one] were, in that order, 1000 to 3000 nM and 101 to 1000 nM.
For `CS(=O)(=O)c1ccc(Nc2ccc(-c3cn[nH]c3)n3ccnc23)cc1` [Compound 71], in that order: 1000 to 3000 nM and 101 to 1000 nM.
With `CS(=O)(=O)c1ccc(Nc2ccc(-c3ccc4c(c3)CNC4=O)n3ccnc23)cc1` [Compound 18, 5-(8-(4-(methylsulfonyl)phenylamino)imi-dazo[1,2-a]pyridin-5-yl)isoindolin-1-one], in assay [1], the EC50 was > 3000 nM. The molecule further yielded an IC50 in assay [2] of 101 to 1000 nM.
For `O=C(Nc1ccccc1)c1ccc(Nc2ccc(-c3ccc4c(c3)CNC4=O)n3ccnc23)cc1` [Compound 17, 4-(5-(1-oxoisoindolin-5-yl)imidazo[1,2-a]pyridin-8-ylamino)-N-phenylbenzamide], in that order: > 3000 nM and 1000 to 3000 nM.
For `CN(C)CCNC(=O)c1ccc(Nc2ccc(-c3ccc4c(c3)CNC4=O)n3ccnc23)cc1` [Compound 36, N-(2-(dimethylamino)ethyl)-4-(5-(1-oxoisoindolin-5-yl)imidazo[1,2-a]pyridin-8-ylamino)benzamide], in that order: > 3000 nM and 101 to 1000 nM.
The like results for `CC(C)N1CCN(C(=O)c2ccc(Nc3ccc(-c4ccc5c(c4)CNC5=O)n4ccnc34)cc2)CC1` [Compound 48, 5-(8-(4-(4-isopropylpiperazine-1-carbonyl)phenylamino)imidazo [1,2-a]pyridin-5-yl)isoindolin-1-one] were, in that order, > 3000 nM and < 100 nM.
As for `NC(=O)c1ccc(-c2ccc(Nc3ccc(N4CCN(C5CC5)CC4)cc3)c3nccn23)cc1` [Compound 83], the EC50 in assay [1] was > 3000 nM. Also, in assay [2], the half-maximal inhibitory concentration (IC50) lay within 1000 to 3000 nM.
The like results for `O=C(NCCN1CCCC1)c1ccc(Nc2ccc(-c3ccc4c(c3)CNC4=O)n3ccnc23)cc1` [Compound 34, 4-(5-(1-oxoisoindolin-5-yl)imidazo[1,2-a]pyridin-8-ylamino)-N-(2-(pyrrolidin-1-yl)ethyl)benzamide] were, in that order, > 3000 nM and < 100 nM.
Take `CN(C)CCCNC(=O)c1ccc(Nc2ccc(-c3ccc4c(c3)CNC4=O)n3ccnc23)cc1` [Compound 50, -(3-(dimethylamino)propyl)-4-(5-(1-oxoisoindolin-5-yl)imidazo[1,2-a]pyridin-8-ylamino)benzamide]: the EC50 in assay [1] was > 3000 nM. In addition, the half-maximal inhibitory concentration (IC50) in assay [2] lay in the range of 101 to 1000 nM.
The like results for `NC(=O)c1ccc(-c2ccc(Nc3ccc(N4CCOCC4)c(F)c3)c3nccn23)cc1Cl` [Compound 73] were, in that order, 101 to 1000 nM and > 3000 nM.
The like results for `NC(=O)c1ccc(-c2ccc(Nc3ccc(N4CCN(C5CCC5)CC4)cc3)c3nccn23)cc1` [Compound 78] were, in that order, > 3000 nM and 101 to 1000 nM.
The like results for `O=C1NCc2cc(-c3ccc(Nc4ccc(C(=O)N5CCOCC5)cc4)c4nccn34)ccc21` [Compound 15, 5-(8-(4-(morpholine-4-carbonyl)phenyl-amino)imidazo[1,2-a]pyridin-5-yl)isoindolin-1-one] were, in that order, > 3000 nM and 101 to 1000 nM.
As for `CN(C)S(=O)(=O)c1ccc(Nc2ccc(-c3ccc4c(c3)CNC4=O)n3ccnc23)cc1` [Compound 20, N,N-dimethyl-4-(5-(1-oxoisoindolin-5-yl)imidazo[1,2-a]pyridin-8-ylamino)benzene sulfonamide], the concentration for a half-maximal effect (EC50) in assay [1] was 101 to 1000 nM. The molecule also gave an IC50 in assay [2] of 101 to 1000 nM.
`CCN1CCN(c2ccc(Nc3ccc(-c4ccc5c(c4)CNC5=O)n4ccnc34)cc2Cl)CC1` [Compound 28, 5-(8-(3-chloro-4-(4-ethylpiperazin-1-yl)phenylamino)imidazo[1,2-a]pyridin-5-yl)isoindolin-1-one]: in assay [1], the EC50 is > 3000 nM. This molecule registered an IC50 in assay [2] of 101 to 1000 nM.
For `CCN1CCN(c2ccc(Nc3ccc(-c4cc[nH]c(=O)c4)n4ccnc34)cc2)CC1` [Compound 91], in that order: 101 to 1000 nM and 101 to 1000 nM.
For `CC(C)N1CCN(c2ccc(Nc3ccc(-c4ccc(C(N)=O)cc4)n4ccnc34)cc2F)CC1` [Compound 11, 4-{8-[3-Fluoro-4-(4-isopropyl-piperazin-1-yl)-phenylamino]-imidazo[1,2-a]pyridin-5-yl}-benzamide], in that order: > 3000 nM and 101 to 1000 nM.
`CC(C)N1CCN(c2ccc(Nc3ccc(-c4ccc(C(N)=O)cc4)n4ccnc34)cc2)CC1` [Compound 10, 4-{8-[4-(4-Isopropyl-piperazin-1-yl)-phenylamino]-imidazo[1,2-a]pyridin-5-yl}-benzamide]: in assay [1], the EC50 lay within 101 to 1000 nM. In assay [2], this molecule gave an IC50 of 101 to 1000 nM.
Consider `CC(C)N1CCN(c2ccc(Nc3ccc(-c4ccc5c(c4)CNC5=O)n4ccnc34)cc2Cl)CC1` [Compound 29, 5-(8-(3-chloro-4-(4-isopropyl-piperazin-1-yl)phenylamino)imidazo[1,2-a]pyridin-5-yl)isoindolin-1-one], for which the EC50 in assay [1] was > 3000 nM. The same molecule registered an IC50 in assay [2] of 101 to 1000 nM.
The like results for `CC(C)N1CCN(c2ccc(Nc3ccc(-c4ccc5c(c4)CNC5=O)n4ccnc34)cc2F)CC1` [Compound 26, 5-(8-(3-fluoro-4-(4-isopropyl-piperazin-1-yl)phenylamino)imidazo[1,2-a]pyridin-5-yl)isoindolin-1-one] were, in that order, > 3000 nM and < 100 nM.
Regarding `CC(C)CCN1CCN(c2ccc(Nc3ccc(-c4ccc(C(N)=O)cc4)n4ccnc34)cc2)CC1` [Compound 79], the EC50 in assay [1] was > 3000 nM. The molecule further registered an IC50 in assay [2] of 101 to 1000 nM.
The like results for `FC(F)CN1CCN(c2ccc(Nc3ccc(-c4cn[nH]c4)n4ccnc34)cc2)CC1` [Compound 109, {4-[4-(2,2-Difluoro-ethyl)-piperazin-1-yl]-phenyl}-[5-(1H-pyrazol-4-yl)-imidazo[1,2-a]pyridin-8-yl]-amine] were, in that order, 101 to 1000 nM and 1000 to 3000 nM.
For `NC(=O)c1ccc(-c2ccc(Nc3ccc(N4CCOCC4)c(F)c3)c3nccn23)cc1F` [Compound 67], in that order: 101 to 1000 nM and > 3000 nM.
Turning to `O=c1cc(-c2ccc(Nc3ccc(N4CCN(C5CC5)CC4)cc3)c3nccn23)cc[nH]1` [Compound 88], in assay [1], the EC50 fell in the range of 1000 to 3000 nM. Also, the IC50 in assay [2] was in the range of 1000 to 3000 nM.
In assay [1], `CC(C)N1CCN(c2ccc(Nc3ccc(-c4cn[nH]c4)n4ccnc34)cc2F)CC1` [Compound 5, [3-Fluoro-4-(4-isopropyl-piperazin-1-yl)-phenyl]-[5-(1H-pyrazol-4-yl)-imidazo[1,2-a]pyridin-8-yl]-amine] had an EC50 of 1000 to 3000 nM. Also, in assay [2], the IC50 was 101 to 1000 nM.
